Values after ≈ are worked out from the molar mass of the structure shown. Where only a bound is given, the exact number is not on record here.

The conditions of the data set: buffer; pH 7.4; 200.0 µM.
On to `C=CCN(CC=C)S(=O)(=O)c1ccc(NC(=S)NC(=O)C2CC2)cc1`, for which the kinetic solubility (usually the concentration staying in solution when a stock, usually in DMSO, is diluted into the medium) came to 0.0078 mg/mL (≈ 20.6 µM). In turn, `Cc1ccc(S(=O)(=O)N2CCc3ccccc3C2)cc1` returned a solubility (kinetic) below 0.0006 mg/mL. With `C=CCc1cccc2cc(C(=O)N3CCOCC3)c(=O)oc12`, the solubility (kinetic) came to 0.0428 mg/mL (≈ 143 µM).

Compound `COc1ccccc1OCCCC(=O)Nc1nccs1` displayed a solubility (kinetic) of 0.0234 mg/mL (≈ 80 µM). `O=C(COC(=O)c1cccc(Br)c1)NCC1CCCO1` (stereo not given) came in with a kinetic solubility above 0.0513 mg/mL. Take `O=C(O)CN1C(=O)S/C(=C\c2cccnc2)C1=O`: the kinetic solubility is above 0.0396 mg/mL. As for `Cc1ccnc(NC(=O)c2ccc([N+](=O)[O-])s2)c1`, the kinetic solubility was 0.004 mg/mL (≈ 15.2 µM). Under `O=C(Nc1ccccc1)C(=O)Nc1cccnc1` stands 0.0069 mg/mL (≈ 28.6 µM); under `O=C(CCCC(=O)c1ccccc1)NCCc1ccccc1F`, 0.0441 mg/mL (≈ 141 µM). Under `C=CCN(c1ccccc1)S(=O)(=O)c1c(C)[nH]c(=O)[nH]c1=O` stands above 0.0482 mg/mL; under `O=C(O)CCC(=O)N(Cc1ccco1)C1CC(=O)N(c2ccccc2)C1=O` (stereo not given), above 0.0556 mg/mL; under `Cc1noc(C)c1COC(=O)c1ccc(N(C)C)cc1`, 0.0016 mg/mL (≈ 5.83 µM). The result for `O=C(NC1CCN(C(=O)c2cccc([N+](=O)[O-])c2)CC1)c1ccccc1` reads above 0.053 mg/mL; that for `O=C(CN1CCN(Cc2ccccc2)CC1)NCc1ccc(Cl)cc1`, above 0.0537 mg/mL.

As to `COc1ccccc1Nc1nc2cc(C)ccc2cc1C#N`, the solubility (kinetic) is below 0.0002 mg/mL. Regarding `Cc1cc(C(=O)OCC(=O)N(C)c2ccccc2)c2ccccc2n1`, the kinetic solubility is above 0.0502 mg/mL. Compound `COc1ccccc1NC(=O)COC(=O)c1ccccn1` returned a solubility (kinetic) above 0.0429 mg/mL.

`COc1ccc(CCNC(=O)NS(=O)(=O)c2ccc(C)cc2)cc1OC` displayed a kinetic solubility above 0.0568 mg/mL. `COc1ccc(C)cc1Nc1nc(N)c2cc(OC)c(OC)cc2n1` displayed a solubility (kinetic) of 0.0401 mg/mL (≈ 118 µM). For `CN1c2ccccc2C(=O)NC1c1ccc(Cl)cc1` (stereo not given), the kinetic solubility is above 0.0409 mg/mL. Under `Cn1c(COc2ccc([N+](=O)[O-])cc2)nnc1SCC(N)=O` stands above 0.0485 mg/mL. Under `Clc1ccccc1C1NCc2ccccc2-n2cccc21` (stereo not given) stands 0.0014 mg/mL (≈ 4.75 µM); under `Cc1cc(NC(=O)CSc2nccn2-c2cccc(F)c2)no1`, above 0.0499 mg/mL. The result for `O=C(/C=C/Nc1ccccc1O)c1ccco1` reads 0.0055 mg/mL (≈ 24 µM); that for `Cc1ccccc1S(=O)(=O)c1cc2ccccc2nc1N`, 0.0015 mg/mL (≈ 5.03 µM); that for `Cc1ccc(-c2ocnc2C(=O)N2CCOCC2)cc1`, above 0.0408 mg/mL. `O=C(NCCNc1ccc([N+](=O)[O-])cc1)c1cccs1` gave a solubility (kinetic) of 0.0067 mg/mL (≈ 23 µM). `O=C(c1cc2ccccc2oc1=O)N1CCOCC1` returned a kinetic solubility above 0.0389 mg/mL. In turn, `COc1ccccc1CN(C)C(=O)c1cc(C)nc2ccccc12` registered a solubility (kinetic) above 0.0481 mg/mL. Compound `Cc1ccc2sc(=O)[nH]c2c1` displayed a solubility (kinetic) of 0.0194 mg/mL (≈ 117 µM). The result for `Cc1c(C(=O)NCCSCc2ccccc2)cccc1[N+](=O)[O-]` reads 0.0466 mg/mL (≈ 141 µM). Under `Cc1ccccc1-n1c(O)c(/C=N/NC(=O)c2ccncc2)c(=O)[nH]c1=O` stands above 0.0548 mg/mL; under `CCc1nc2oc3ccc(C)cc3c(=O)c2cc1C(=O)OC`, below 0.0006 mg/mL; under `CN(C)C(=S)NC(=O)C12CC3(C)CC(C)(CC(C)(C3)C1)C2`, 0.001 mg/mL (≈ 3.24 µM). Under `COc1cc(C2NC(=O)NC(C)=C2C(C)=O)cc(OC)c1OC` (stereo not given) stands 0.0387 mg/mL (≈ 121 µM); under `O=C(Nc1ccc(C2SCCS2)cc1)c1ccccc1`, 0.0014 mg/mL (≈ 4.64 µM); under `Cc1ccc(NCc2ccc([N+](=O)[O-])s2)cc1`, 0.0137 mg/mL (≈ 55.2 µM). With `CCOc1ccc(CCN2CN(CC)CNC2=S)cc1OCC`, the solubility (kinetic) is above 0.0506 mg/mL.

As to `O=C(Cc1ccccc1)NCC(=O)OCc1ccccc1F`, the solubility (kinetic) worked out at 0.0173 mg/mL (≈ 57.4 µM). `S=c1[nH]ccn1-c1ccc(Cl)cc1`: the kinetic solubility was determined as 0.0292 mg/mL (≈ 139 µM). Under `CCOc1ccc(CNc2ccc3c(c2)ncn3C(C)(C)C)cc1` stands 0.0463 mg/mL (≈ 143 µM); under `O=C(NCCCCO)c1ccc2c3c(cccc13)CC2`, 0.0392 mg/mL (≈ 146 µM). The result for `CCOC(=O)C1(CC2CC2)CCN(Cc2cnc(N(C)C)s2)CC1` reads 0.0461 mg/mL (≈ 131 µM). Under `COc1cc2c(C(=O)NCCN(C)C)cn(CC(C)C)c(=O)c2cc1OC` stands above 0.0563 mg/mL; under `COC(=O)c1ccc(S(=O)(=O)N2CCC(O)CC2)n1C`, above 0.0454 mg/mL; under `CC(=O)c1cccc(NC(=O)CSc2nc3ccccc3c(=O)n2CCCN2CCOCC2)c1`, above 0.0721 mg/mL. For the compound `Cc1ccc(NC(=O)c2ccc3c(c2)NC(=O)CS3)nc1`, the solubility (kinetic) came to 0.0053 mg/mL (≈ 17.7 µM).

In turn, `COc1ccc(OCC(O)CNS(=O)(=O)c2cccs2)cc1` (stereo not given) showed a solubility (kinetic) above 0.0515 mg/mL. Consider `Cc1ccc(S(=O)(=O)NC2CC(C)(C)NC(C)(C)C2)c(C)c1C`, for which the solubility (kinetic) is 0.0426 mg/mL (≈ 126 µM). Under `Cc1cc(NC(=O)C(Cl)c2ccccc2)no1` (stereo not given) stands above 0.0376 mg/mL; under `C/C(=N\NC(N)=S)c1cccnc1`, above 0.0291 mg/mL. Compound `CC(C)c1ccc(NC(=O)COc2ccc(C3SCCS3)cc2)cc1` registered a kinetic solubility of 0.0041 mg/mL (≈ 11 µM). The result for `CC(C)(C)OC(=O)N1CCC(CNC(=O)Nc2ccccc2)CC1` reads above 0.05 mg/mL; that for `CC(=O)N1CCN(C(=O)c2ccc(Cl)c(S(=O)(=O)N3CC(C)OC(C)C3)c2)CC1` (stereo not given), above 0.0666 mg/mL; that for `CCc1ccccc1OCC(=O)NCC1COc2ccccc2O1` (stereo not given), 0.0149 mg/mL (≈ 45.5 µM). The result for `O=C(CN1C(=O)NC2(CCCCC2)C1=O)N1CCOCC1` reads above 0.0443 mg/mL; that for `Cc1nc(Oc2ccccc2)c2ccsc2n1`, 0.02 mg/mL (≈ 82.5 µM). With `Nc1ccc(S(=O)(=O)NC2=NCCCCC2)cc1`, the solubility (kinetic) is above 0.0401 mg/mL.

In turn, `O=C1NCCCN1Cc1ccc(Cl)cc1` yielded a solubility (kinetic) above 0.0337 mg/mL. The result for `Cc1csc(NC(=O)c2c(-c3ccccc3)noc2C)n1` reads 0.0374 mg/mL (≈ 125 µM). Under `Cc1ccc(S(=O)(=O)CCSc2nccn2C)cc1` stands above 0.0445 mg/mL. `O=C(NC(=S)NNC(=O)c1ccco1)c1ccc(F)cc1` gave a solubility (kinetic) above 0.0461 mg/mL. The result for `O=c1o[nH]c(-c2ccccc2)c1-c1ccccc1` reads 0.035 mg/mL (≈ 148 µM). The result for `Oc1ccc(Br)cc1CNc1cnc2ccccc2c1` reads 0.001 mg/mL (≈ 3.04 µM); that for `COc1ccc(C)cc1NC(=S)NN1CCN(C)CC1`, above 0.0442 mg/mL; that for `COCCSc1nc(N)c2c3c(sc2n1)CN(C)CC3`, above 0.0466 mg/mL. `COC(=O)[C@@H](NC(=O)N1CCC(C)CC1)C(C)C` came in with a kinetic solubility of 0.034 mg/mL (≈ 133 µM).

Compound `O=C(O)CNC(=S)N(Cc1ccccc1Cl)C1CCCCC1` registered a kinetic solubility of 0.0491 mg/mL (≈ 144 µM).

`O=C(CNC(=O)c1ccc(Cl)cc1)c1ccc(Cl)cc1` yielded a solubility (kinetic) of 0.009 mg/mL (≈ 29.2 µM). Consider `COCC(C)n1c(C)cc(C(=O)COC(=O)c2nn(C)c(=O)c3ccccc23)c1C` (stereo not given), for which the kinetic solubility is above 0.0617 mg/mL. Consider `COc1ccccc1N(CC1CO1)S(=O)(=O)c1ccc(C)cc1` (stereo not given), for which the solubility (kinetic) was 0.0475 mg/mL (≈ 142 µM).

For the compound `CC(=O)c1ccccc1NC(=O)COC(=O)CCC1CCCC1`, the kinetic solubility was 0.0077 mg/mL (≈ 24.3 µM). In turn, `O=C(COc1ncnc2ccccc12)NC1CCCC1` gave a solubility (kinetic) above 0.0407 mg/mL. For the compound `CCCc1ccc(OCCNC(=O)c2ccco2)cc1`, the solubility (kinetic) was above 0.041 mg/mL. The result for `O=C(/C=C/c1ccc([N+](=O)[O-])cc1)N1CCN(Cc2ccccc2)CC1` reads 0.0017 mg/mL (≈ 4.84 µM); that for `CCOC(=O)C(=CNc1ccc(C#N)cc1)C(=O)OCC`, above 0.0432 mg/mL; that for `CCC1(CC)Cc2ccccc2-c2nc(NCCCO)[nH]c(=O)c21`, 0.042 mg/mL (≈ 128 µM). In turn, `O=C(O)c1ccc2c(=O)n3c(nc2c1)/C(=C/c1ccc(F)cc1)CC3` returned a kinetic solubility above 0.0504 mg/mL. Take `O=C(CC1S/C(=N/N=C2CCCCCC2)NC1=O)Nc1ccccc1F` (stereo not given): the solubility (kinetic) is above 0.0565 mg/mL. For `N#C/C(C(N)=O)=C1/CCCN1Cc1ccccc1`, the solubility (kinetic) was above 0.0362 mg/mL.

For the compound `COc1ccccc1CNC(=O)CC(C)c1ccccc1` (stereo not given), the solubility (kinetic) is 0.0398 mg/mL (≈ 140 µM). Under `O=C(NCc1cccc(Cl)c1)c1ccc2ccccc2n1` stands 0.0036 mg/mL (≈ 12.1 µM). On to `C[C@@H](C(=O)Nc1cccnc1)n1c(=O)[nH]c2ccccc2c1=O`, for which the solubility (kinetic) was above 0.0465 mg/mL. The result for `Cc1cc(=O)[nH]c(SCC(=O)NC2CCCCCCC2)n1` reads above 0.0464 mg/mL; that for `COc1cc(C(=O)NCCNC(=O)c2ccc(C)nc2)cc(OC)c1OC`, 0.0526 mg/mL (≈ 141 µM). The result for `CC(C)c1cc(NCc2ccccn2)n2c(nc3ccccc32)c1C#N` reads below 0.0001 mg/mL; that for `O=C(O)c1ccc(N=Cc2c(O)[nH]c(=O)[nH]c2=O)cc1`, above 0.0413 mg/mL; that for `O=C(NCc1ccco1)c1cc([N+](=O)[O-])ccc1Cl`, 0.0283 mg/mL (≈ 101 µM).

As to `COc1cccc(C(=O)Nc2ccccc2OC(F)(F)F)c1`, the kinetic solubility worked out at 0.0306 mg/mL (≈ 98.3 µM). Under `CC(C)(C)c1csc(NC(=O)c2c(F)c(F)c(F)c(F)c2F)n1` stands 0.0213 mg/mL (≈ 60.8 µM). Regarding `Cc1csc(NC(=O)c2ccc(OCC3CCCO3)cc2)n1` (stereo not given), the solubility (kinetic) was determined as 0.021 mg/mL (≈ 66 µM). In the case of `CCC(C)C12CN3CCN(CC(C)(C3)C1O)C2` (stereo not given), the solubility (kinetic) is above 0.0358 mg/mL. The result for `CCN(Cc1ccccc1)S(=O)(=O)c1ccc(F)cc1` reads 0.0156 mg/mL (≈ 53.2 µM). `COc1ccc(S(=O)(=O)N2CCCC2c2cccs2)cc1` (stereo not given) registered a kinetic solubility of 0.0274 mg/mL (≈ 84.7 µM). As to `Cc1cc(C)cc(N2C(=O)CSC2c2ccccn2)c1` (stereo not given), the solubility (kinetic) was above 0.0427 mg/mL.

As to `Cn1c(=O)n(Cc2ccccc2)c(=O)c2c1nc1n2CCN1Cc1ccco1`, the solubility (kinetic) came to 0.0518 mg/mL (≈ 137 µM). `C1=NCCc2c1[nH]c1ccccc21.[O-][Cl+3]([O-])([O-])O` returned a kinetic solubility above 0.0406 mg/mL.

`Cc1[nH]c2ccccc2c1/C=C(\C#N)C(=O)NC1CC1`: the kinetic solubility stood at 0.0068 mg/mL (≈ 25.6 µM). The result for `CCOC(=O)N1CCN(C(=O)CCc2ccccc2)CC1` reads above 0.0436 mg/mL; that for `Cc1ccsc1C(=O)OCC(=O)NCc1ccc(Cl)cc1`, 0.0045 mg/mL (≈ 13.9 µM). Under `O=C(Nc1ccc(CN2CCOCC2)cc1)c1cc(Br)ccc1Cl` stands 0.057 mg/mL (≈ 139 µM); under `O=C(CCNC(=O)c1ccc(Br)cc1)Nc1ncccc1O`, 0.0523 mg/mL (≈ 144 µM). `CCc1ccc(S(=O)(=O)Nc2ccccn2)cc1` registered a kinetic solubility above 0.0393 mg/mL. In turn, `Cn1nc(-c2ccc(Cl)cc2)cc1NC(=O)CC(C)(C)CC(=O)O` had a kinetic solubility above 0.0525 mg/mL. The result for `Cc1ccc(C(=O)NC2CCCC2)s1` reads 0.0299 mg/mL (≈ 143 µM).

Source of the values: PubChem BioAssay AID1996.
